Experiments:
Experiment in all cases: relative viability (nuclei count vs DMSO), 5 days (fraction); higher = more cells survive
[1] = compound: C/C(=N\NC(=S)N1CCC1)/C2=CC=CC=N2 + C[C@@H](Oc1cc(-c2cnn(C3CCNCC3)c2)cnc1N)c1c(Cl)ccc(F)c1Cl [Crizotinib] (partner 1 µM)
Summary of the method: (§1)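 Relative viability equals treated-well nuclei counts divided by vehicle-well nuclei counts. Counts came from 4× images of lung cancer cell lines grown in 1536-well plates for 5 days after pin-tool dosing on the day after seeding. Dosing used one drug alone or a fixed anchor-drug dose plus five library-drug doses (not always all listed) in √10 steps, and values are medians of duplicate plates.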

[2] = compound: C/C(=N\NC(=S)N1CCC1)/C2=CC=CC=N2 + Cc1cc(Nc2cc(N3CCN(C)CC3)nc(Sc3ccc(NC(=O)C4CC4)cc3)n2)n[nH]1 [Tozasertib] (partner 0.1 µM)
Summary of the method: as §1

[3] = compound: C/C(=N\NC(=S)N1CCC1)/C2=CC=CC=N2 + Nc1ncn([C@H]2C[C@H](O)[C@@H](CO)O2)c(=O)n1 [Decitabine] (partner 2 µM)
Summary of the method: as §1

[4] = compound: C/C(=N\NC(=S)N1CCC1)/C2=CC=CC=N2 + CS(=O)(=O)CCNCc1ccc(-c2ccc3ncnc(Nc4ccc(OCc5cccc(F)c5)c(Cl)c4)c3c2)o1 [Lapatinib] (partner 2 µM)
Summary of the method: as §1

Row | Cell Line | relative viability ([1]; first compound 0.05 µM) | relative viability ([1]; first compound 0.1581 µM) | relative viability ([1]; first compound 0.5 µM) | relative viability ([1]; first compound 1.581 µM) | relative viability ([1]; first compound 5 µM) | relative viability ([2]; first compound 0.05 µM) | relative viability ([2]; first compound 0.1581 µM) | relative viability ([2]; first compound 0.5 µM) | relative viability ([2]; first compound 1.581 µM) | relative viability ([2]; first compound 5 µM) | relative viability ([3]; first compound 0.05 µM) | relative viability ([3]; first compound 0.1581 µM) | relative viability ([3]; first compound 0.5 µM) | relative viability ([3]; first compound 1.581 µM) | relative viability ([3]; first compound 5 µM) | relative viability ([4]; first compound 0.05 µM) | relative viability ([4]; first compound 0.1581 µM) | relative viability ([4]; first compound 0.5 µM) | relative viability ([4]; first compound 1.581 µM) | relative viability ([4]; first compound 5 µM)
1 | NCI-H661 | 0.361 | 0.322 | 0.263 | 0.349 | 0.288 | 0.239 | 0.261 | 0.23 | 0.235 | 0.248 | 0.274 | 0.26 | 0.218 | 0.236 | 0.232 | 0.187 | 0.184 | 0.2 | 0.201 | 0.198
2 | NCI-H727 | 0.193 | 0.145 | 0.138 | 0.179 | 0.157 | 0.28 | 0.311 | 0.257 | 0.159 | 0.261 | 0.406 | 0.366 | 0.394 | 0.398 | 0.466 | 0.194 | 0.222 | 0.25 | 0.232 | 0.267
3 | NCI-H838 | 0.174 | 0.175 | 0.19 | 0.18 | 0.15 | 0.148 | 0.143 | 0.137 | 0.133 | 0.129 | 0.258 | 0.261 | 0.265 | 0.192 | 0.2 | 0.185 | 0.186 | 0.212 | 0.149 | 0.164
4 | NCI-H1355 | 0.318 | 0.63 | 0.189 | 0.151 | 0.172 | 0.186 | 0.169 | 0.17 | 0.172 | 0.163 | 0.206 | 0.207 | 0.189 | 0.172 | 0.157 | 0.203 | 0.238 | 0.205 | 0.167 | 0.18
5 | NCI-H1437 | 0.138 | 0.133 | 0.128 | 0.129 | 0.0811 | 0.144 | 0.138 | 0.157 | 0.133 | 0.102 | 0.263 | 0.248 | 0.246 | 0.199 | 0.172 | 0.127 | 0.128 | 0.109 | 0.0868 | 0.0855
6 | NCI-H1650 | 0.18 | 0.199 | 0.19 | 0.153 | 0.175 | 0.121 | 0.187 | 0.126 | 0.16 | 0.194 | 0.189 | 0.141 | 0.141 | 0.206 | 0.186 | 0.257 | 0.204 | 0.192 | 0.267 | 0.199
7 | NCI-H1651 | 0.148 | 0.132 | 0.129 | 0.112 | 0.126 | 0.136 | 0.114 | 0.108 | 0.0885 | 0.0771 | 0.127 | 0.114 | 0.103 | 0.0618 | 0.0864 | 0.117 | 0.119 | 0.131 | 0.0681 | 0.0861
8 | NCI-H1666 | 0.204 | 0.221 | 0.216 | 0.195 | 0.207 | 0.35 | 0.33 | 0.301 | 0.3 | 0.305 | 0.367 | 0.368 | 0.411 | 0.329 | 0.375 | 0.229 | 0.27 | 0.273 | 0.198 | 0.228
